The text below walks through data of patent US10961202B2, “Bis-benzimidazole compounds and methods of using the same” (THE SCRIPPS RESEARCH INSTITUTE, priority 2017, dated 2021).

The first assay concerns r(CUG)12-MBNL1 complex. Description: Inhibition of the r(CUG)12-MBNL1 complex measured by TR-FRET. The assay is classed as biochemical. The settings on record: Table L; 80 nM RNA, 60 nM MBNL1-His6. On the technique in general: TR-FRET usually uses a lanthanide donor and a delayed reading to cut background.
As a reminder, the IC50 is the midpoint of a concentration-inhibition curve. In the case of `Cn1c(-c2ccc(-c3nc4ccccc4n3C)cc2)nc2ccccc21` [Compound 82], the IC50 is above 200 µM.

Take `O=C(NCCCN1CCCCC1)c1ccc2nc(-c3ccc(-c4nc5ccc(C(=O)NCCCN6CCCCC6)cc5[nH]4)cc3)[nH]c2c1` [Compound 48, 2,2′-(1,4-phenylene)bis(N-(3-(piperidin-1-yl)propyl)-1H-benzo[d]imidazole-6-carboxamide)]: half-maximal inhibition (IC50) was put at 10.3 µM.

Compound `Cn1c(-c2ccc(-c3nc4ccc(NC(=N)N)cc4n3C)cc2)nc2ccc(NC(=N)N)cc21` [Compound 88] had an IC50 above 200 µM.

Compound `CNCCNC(=O)c1ccc2nc(-c3ccc(-c4nc5ccc(C(=O)NCCN(C)C)cc5[nH]4)cc3)[nH]c2c1` [Compound 27, N-(2-(dimethylamino)ethyl)-2-(4-(6-((2-(methylamino)ethyl)carbamoyl)-1H-benzo[d]imidazol-2-yl)phenyl)-1H-benzo[d]imidazole-6-carboxamide] yielded an IC50 of 12.3 µM. This lies in the double-digit micromolar range.

In turn, `CN(C)CC(=O)Nc1ccc2nc(-c3ccc(-c4nc5ccc(NC(=O)CN(C)C)cc5[nH]4)cc3)[nH]c2c1` [Compound 63] returned an IC50 of 10.7 µM.

In turn, `CN(C)CCCOC(=O)c1ccc2nc(-c3ccc(-c4nc5ccc(C(=O)OCCCN(C)C)cc5[nH]4)cc3)[nH]c2c1` [Compound 56] gave an IC50 of 5 µM.

`CC(C)(C)OC(=O)NCCNC(=O)c1ccc2nc(-c3ccc(-c4nc5ccc(C(=O)NCCNC(=O)OC(C)(C)C)cc5[nH]4)cc3)[nH]c2c1` [Compound 50, di-tert-butyl(((2,2′-(1,4-phenylene)bis(1H-benzo[d]imidazole-6,6′-carbonyl))bis(azanediyl))bis(ethane-2,1-diyl))dicarbamate] displayed an IC50 above 200 µM.

The compound `CN(C)CCNC(=O)c1ccc2nc(-c3ccc(-c4nc5ccc(C(=O)NCCNC(=O)OC(C)(C)C)cc5[nH]4)cc3)[nH]c2c1` [Compound 49, tert-butyl (2-(2-(4-(6-((2-(dimethylamino)ethyl)carbamoyl)-1H-benzo[d]imidazol-2-yl)phenyl)-1H-benzo[d]imidazole-6-carboxamido)ethyl)carbamate] displayed an IC50 of 22.1 µM.

`CCOC(CNC(=N)Nc1ccc2nc(-c3ccc(-c4nc5ccc(NC(=N)NCC(OCC)OCC)cc5[nH]4)cc3)[nH]c2c1)OCC` [Compound 18, 1,1′-(2,2′-(1,4-phenylene)bis(1H-benzo[d]imidazole-5,2-diyl))bis(3-(2,2-diethoxyethyl)guanidine)] showed an IC50 of 35 µM.

In the case of `CN(C)NC(=O)Nc1ccc2nc(-c3ccc(-c4nc5ccc(NC(=O)NN(C)C)cc5[nH]4)cc3)[nH]c2c1` [Compound 66, N,N′-(2,2′-(1,4-phenylene)bis(1H-benzo[d]imidazole-6,2-diyl))bis(2,2-dimethylhydrazinecarboxamide)], the IC50 was above 200 µM.

In the case of `NC(=O)Nc1ccc(-c2nc3cc(-c4ccc5[nH]c(-c6ccc(NC(N)=O)cc6)nc5c4)ccc3[nH]2)cc1` [Compound 97], the IC50 was 71 µM.

The compound `CC(=O)Nc1ccc2nc(-c3ccc(-c4nc5ccc(N)cc5[nH]4)cc3)[nH]c2c1` [Compound 4, N-(2-(4-(5-amino-1H-benzo[d]imidazol-2-yl)phenyl)-1H-benzo[d]imidazol-5-yl)acetamide] gave an IC50 above 200 µM.

In turn, `CON(C)Cc1ccc2nc(-c3ccc(-c4nc5ccc(CNCCN(C)C)cc5[nH]4)cc3)[nH]c2c1` [Compound 62] came in with an IC50 above 200 µM.

The assay is the same for the next values; noted with them: Table M; 80 nM RNA, 60 nM MBNL1-His6.
On to `CN(C)CCn1cc(-c2ccc3nc(-c4ccc(-c5nc6ccc(-c7cn(CCN(C)C)nn7)cc6[nH]5)cc4)[nH]c3c2)nn1` [Compound 251, 2,2′-(4,4′-(2,2′-(1,4-phenylene)bis(1H-benzo[d]imidazole-6,2-diyl))bis(1H-1,2,3-triazole-4,1-diyl))bis(N,N-dimethylethanamine)], for which it took 112 µM to reach half-maximal inhibition (IC50).

`CN(C)Cc1cccc(Oc2ccc3nc(-c4ccc(-c5nc6ccc(Oc7cccc(CN(C)C)c7)cc6[nH]5)cc4)[nH]c3c2)c1` [Compound 243] yielded an IC50 above 200 µM.

`CN(C)CCCOc1ccc(-c2nc3cc(-c4ccc(C(=O)NCCN(C)CCN)cc4)ccc3[nH]2)cc1` [Compound 395] gave an IC50 above 200 µM.

`CN(C)C/C=C/COc1ccc2nc(-c3ccc(-c4nc5ccc(OC/C=C/CN(C)C)cc5[nH]4)cc3)[nH]c2c1` [Compound 233, (2E,2′E)-4,4′-((2,2′-(1,4-phenylene)bis(1H-benzo[d]imidazole-6,2-diyl))bis(oxy))bis(N,N-dimethylbut-2-en-1-amine)] came in with a concentration for half-maximal inhibition (IC50) of 39.5 µM. In other words, the double-digit micromolar range.

Consider `CN(C)CCNC(=O)c1ccc(-c2nc3ccc(-c4ccc5nc(-c6ccc(C(=O)NCCOCCOCCOCCOCc7cn(CCCNCC(=O)N8CCCC8C(=O)N8CCC[C@H]8C(=O)N(CCCn8cc(COCCOCCOCCOCCNC(=O)c9ccc(-c%10nc%11ccc(-c%12ccc%13nc(-c%14ccc(C(=O)NCCN(C)C)cc%14)[nH]c%13c%12)cc%11[nH]%10)cc9)nn8)CC(N)=O)nn7)cc6)[nH]c5c4)cc3[nH]2)cc1` (some centres unmarked) [Compound 438], for which the IC50 is above 200 µM.

Regarding `c1cc2nc(-c3ccc(-c4nc5ccc(OCCCN6CCCC6)cc5[nH]4)cc3)[nH]c2cc1OCCCN1CCCC1` [Compound 295], the IC50 turned out to be 69.9 µM.

`CN(C)CCCCCOc1ccc2nc(-c3ccc(-c4nc5ccc(O)cc5[nH]4)cc3)[nH]c2c1` [Compound 193] had an IC50 of 36.7 µM.

On to `Cc1cc(-c2nc3ccc(OCCCN(C)C)cc3[nH]2)c(C)cc1-c1nc2ccc(OCCCN(C)C)cc2[nH]1` [Compound 271, (3-[[2-(4-[6-[3-(dimethylamino)propoxy]-1H-1,3-benzodiazol-2-yl]-2,5-dimethylphenyl)-1H-1,3-benzodiazol-6-yl]oxy]propyl)dimethylamine], for which the IC50 is above 200 µM.

As to `CN(C)CCNC(=O)c1ccc(-c2nc3ccc(-c4ccc5nc(-c6ccc(C(=O)NCCOCCOCc7cn(CCCNCC(=O)N8CCCC8C(=O)N8CCC[C@H]8C(=O)N(CCCn8cc(COCCOCCNC(=O)c9ccc(-c%10nc%11ccc(-c%12ccc%13nc(-c%14ccc(C(=O)NCCN(C)C)cc%14)[nH]c%13c%12)cc%11[nH]%10)cc9)nn8)CC(N)=O)nn7)cc6)[nH]c5c4)cc3[nH]2)cc1` (some centres unmarked) [Compound 437], the IC50 worked out at 7.5 µM.

For `c1cc(-c2nc3cc(-c4ccc5[nH]c(-c6ccc(OCCN7CCOCC7)cc6)nc5c4)ccc3[nH]2)ccc1OCCN1CCOCC1` [Compound 351], the IC50 was at least 200 µM.

With `CN(C)CCNC(=O)c1ccc(-c2nc3ccc(-c4ccc5nc(-c6ccc(C(=O)NCCCOCCOCCOCCCNC(=O)c7ccc(-c8nc9ccc(-c%10ccc%11nc(-c%12ccc(C(=O)NCCN(C)C)cc%12)[nH]c%11c%10)cc9[nH]8)cc7)cc6)[nH]c5c4)cc3[nH]2)cc1` [Compound 429], the IC50 came out at 9.6 µM.

`CN(C)CCNC(=O)c1ccc(-c2nc3cc(-c4ccc5[nH]c(-c6ccc(C(=O)NCCOCCOCCOCCOCCN=[N+]=[N-])cc6)nc5c4)ccc3[nH]2)cc1` [Compound 397] came in with an IC50 of 12.2 µM.

In the case of `CN(C)CCCOc1ccc2nc(-c3cnc(-c4nc5ccc(OCCCN(C)C)cc5[nH]4)nc3)[nH]c2c1` [Compound 317], the IC50 amounted to 21.4 µM.

Consider `CN(CCNC(=O)c1ccc2nc(-c3ccc(-c4nc5ccc(C(=O)NCCN(C)C[C@H](O)[C@@H](O)[C@H](O)[C@H](O)CO)cc5[nH]4)cc3)[nH]c2c1)CC(O)C(O)C(O)C(O)CO` (stereo in doubt) [Compound 175, 2,2′-(1,4-phenylene)bis(N-(2-(methyl((2S,3R,4R,5R)-2,3,4,5,6-pentahydroxyhexyl)amino)ethyl)-1H-benzo[d]imidazole-6-carboxamide)], for which the IC50 came to 49.1 µM. This IC50 is about 2.3-fold higher than that of the compound before.

`CN1CCC(COc2ccc3nc(-c4ccc(-c5nc6ccc(O)cc6[nH]5)cc4)[nH]c3c2)CC1` [Compound 194, 2-(4-(6-((1-methylpiperidin-4-yl)methoxy)-1H-benzo[d]imidazol-2-yl)phenyl)-1H-benzo[d]imidazol-6-ol] displayed an IC50 of 39 µM.

`CN(C)CCCOc1ccc(-c2nc3cc(-c4ccc5[nH]c(-c6ccc(C(=O)NCCCn7cc(CCCNC(=O)c8ccc(C9=Nc%10cc(-c%11ccc%12[nH]c(-c%13ccc(C(=O)NCCN(C)C)cc%13)nc%12c%11)ccc%10C9)cc8)nn7)cc6)nc5c4)ccc3[nH]2)cc1` [Compound 457] came in with an IC50 above 200 µM.

As to `C[C@H](CN(C)C)NC(=O)c1ccc(-c2nc3cc(-c4ccc5[nH]c(-c6ccc(C(=O)N[C@H](C)CN(C)C)cc6)nc5c4)ccc3[nH]2)cc1` [Compound 388], the IC50 amounted to 30.2 µM. This counts as double-digit micromolar.

`CN(C)CCCOc1ccc2nc(-c3ccc(-c4nc5ccc(OCCCN(C)C)cc5n4C)cc3)[nH]c2c1` [Compound 312] displayed a concentration for half-maximal inhibition (IC50) above 200 µM.

Consider `C[C@@H](NC(=O)CN(CCN)C(=O)c1ccc(-c2nc3cc(-c4ccc5[nH]c(-c6ccc(C(=O)NCCN(C)C)cc6)nc5c4)ccc3[nH]2)cc1)C(=O)N[C@H](C)C(=O)N[C@H](C)C(=O)N[C@H](C)C(=O)N(CCNC(=O)c1ccc(-c2nc3cc(-c4ccc5[nH]c(-c6ccc(C(=O)NCCN(C)C)cc6)nc5c4)ccc3[nH]2)cc1)CC(N)=O` (single isomer, unassigned) [Compound 443], for which the IC50 worked out at 8 µM.

Regarding `COCCn1c(-c2ccc(-c3nc4cc(OCCCN(C)C)ccc4[nH]3)cc2)nc2cc(OCCCN(C)C)ccc21` [Compound 329], the IC50 was above 200 µM.

Regarding `CN(C)CCCSc1ccc(-c2nc3cc(-c4ccc5[nH]c(-c6ccc(SCCCN(C)C)cc6)nc5c4)ccc3[nH]2)cc1` [Compound 383], the IC50 was 41.6 µM.

`CC(C(=O)N(C)C(C)C(=O)N(C)C(C)C(=O)N(C)C(C)C(=O)N(CCCn1cc(CCCCN(C)CCOc2ccc(-c3nc4cc(-c5ccc6[nH]c(-c7ccc(OCCN(C)C)cc7)nc6c5)ccc4[nH]3)cc2)nn1)CC(N)=O)N(C)C(=O)CNCCCn1cc(CCCCN(C)CCOc2ccc(-c3nc4cc(-c5ccc6[nH]c(-c7ccc(OCCN(C)C)cc7)nc6c5)ccc4[nH]3)cc2)nn1` (centres unmarked) [compound 164] had an IC50 of 1.91 µM.

For `CN1C2CCC1CC(NC(=O)c1ccc(-c3nc4cc(-c5ccc6[nH]c(-c7ccc(C(=O)NC8CC9CCC(C8)N9C)cc7)nc6c5)ccc4[nH]3)cc1)C2` (centres unmarked) [Compound 341], inhibition was half-maximal at 5.32 µM (IC50).

On to `CN1CC[C@@H](Oc2ccc3nc(-c4ccc(-c5nc6ccc(O[C@@H]7CCN(C)C7)cc6[nH]5)cc4)[nH]c3c2)C1` [Compound 181], for which 54.4 µM corresponded to half-maximal inhibition (IC50).

Consider `CN(C)CCCOc1ccc2nc(-c3ccc(-c4nc5ccccc5[nH]4)cc3)[nH]c2c1` [Compound 246], for which the IC50 was above 200 µM.
